Data: US5571942A, “Ring-substituted 2-amino-1,2,3,4-tetrahydronaphthalenes and 3-aminochromanes” (Eli Lilly and Company, priority 1995, dated 1996)

Tests used:
Design in all cases: species or system rat (male Sprague-Dawley)
5-HT1A receptors [1] = molecular target: T1, 5-HT1A receptors (Rattus norvegicus, UniProt P19327); experiment: in vivo lowering of brain 5-HIAA levels (5-HT1A agonist activity); details: one hour after treatment
T1 construct: from tissue; host or cells: cerebral cortex (crude synaptosomal membranes) of male Sprague-Dawley rats
T1 sequence (P19327 1-422): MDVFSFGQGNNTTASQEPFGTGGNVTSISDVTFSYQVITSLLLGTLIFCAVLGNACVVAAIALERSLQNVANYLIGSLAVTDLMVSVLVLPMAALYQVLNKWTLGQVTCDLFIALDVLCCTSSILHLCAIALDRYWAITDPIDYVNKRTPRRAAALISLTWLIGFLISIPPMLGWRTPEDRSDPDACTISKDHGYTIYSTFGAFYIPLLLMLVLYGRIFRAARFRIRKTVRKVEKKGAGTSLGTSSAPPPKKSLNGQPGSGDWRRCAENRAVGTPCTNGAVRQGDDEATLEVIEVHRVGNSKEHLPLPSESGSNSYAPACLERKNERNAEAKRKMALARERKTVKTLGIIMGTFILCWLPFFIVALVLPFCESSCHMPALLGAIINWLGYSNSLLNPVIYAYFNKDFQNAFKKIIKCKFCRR
Method: (§1) Compounds of this invention were also examined for their in vivo effects on brain 5-HIAA and serum corticosterone levels. Male Sprague-Dawley rats weighting 150-200 g were administered subcutaneously or orally with aqueous solutions of the test compound. One hour after treatment, the rats were decapitated and trunk blood collected. The blood was allowed to clot and then was centrifuged to separate the serum. The concentration of corticosterone in the serum was determined by the spectrofluorometric method of Solem, J. H.; Brinck-Johnsen, T., Scand. J. Clin. Invest. [Suppl. 80], 17, 1 (1965). The whole brains from the decapitated rats were quickly removed, frozen on dry ice, and stored at -15° C. 5-HIAA concentrations were measured by liquid chromatography with electrochemical detection as described by Fuller, R. W.; Snoddy, H. D.; Perry, K. W., Life Sci. 40, 1921 (1987).
(§2) The results provided in columns 3-5 are indicative of 5-HT1A agonist activity.

5-HT1A receptors [2] = molecular target: T1, 5-HT1A receptors; experiment: in vivo elevation of serum corticosterone levels (5-HT1A agonist activity); details: sc, one hour after treatment
Method: as §1, §2

5-HT1A receptors [3] = molecular target: T1, 5-HT1A receptors; experiment: in vitro binding: inhibition of 3H-8-OH-DPAT binding to synaptosomal membranes from rat cerebral cortex; details: 3H-8-OH-DPAT 2 nM, 37° C., 10 min, pH 7.4
Excerpt: Sites specifically labeled by tritiated 8-hydroxy-2-dipropylamino-1,2,3,4-tetrahydronaphthalene (^3 H-8-OH-DPAT) have been identified as 5-HT1A receptors. This general procedure is set forth in Wong et al., J. Neural Transm. 71:207-218 (1988).
Male Sprague-Dawley rats (110-150 g) from Harlan Industries (Cumberland, Ind.) were fed a Purina Chow ad libitum for at least 3 days before being used in the studies. Rats were killed by decapitation. The brains were rapidly removed, and the cerebral cortices were dissected out at 4° C.
Brain tissues were homogenized in 0.32M sucrose. After centrifugation at 1000×g for 10 min and then at 17000×g for 20 min, a crude synaptosomal fraction was sedimented. The pellet was suspended in 100 vol of 50 mM Tris-HCl, pH 7.4, incubated at 37° C. for 10 min, and centrifuged at 50000×g for 10 min. The process was repeated and the final pellet was suspended in ice-chilled 50 mM Tris-HCl, pH 7.4.
Binding of ^3 H-8-OH-DPAT was performed according to the previously described method [Wong et al., J. Neural Transm. 64:251-269 (1985)]. Briefly, synaptosomal membranes isolated from cerebral cortex were incubated at 37° C. for 10 min. in 2 ml of 50 mM Tris-HCl, pH 7.4; 10 mM pargyline; 0.6 mM ascorbic acid; 5 mM CaCl2; 2 nM ^3 H-8-OH-DPAT and 0.1 to 1000 nm of the compound of interest. Binding was terminated by filtering samples under reduced pressure through glass fiber (GFB) filters. The filters were washed twice with 5 ml of ice cold buffer and placed in scintillation vials with 10 ml of PCS (Amersham/Searle) scintillation fluid. Radioactivity was measured with a liquid scintillation spectrometer. Unlabeled 8-OH-DPAT at 10 μM was also included in separate samples to establish non-specific binding. Specific binding of ^3 H-8-OH-DPAT is defined as the difference of radioactivity bound in the absence and in the presence of 10 μM unlabeled 8-OH-DPAT.
as §2

CCCN(CCC)C1CCc2cccc(-c3ccon3)c2C1 (stereo not shown) [Example 25]
5-HIAA MED (minimum effective dose lowering brain 5-HIAA levels) (5-HT1A receptors [1]; po): 10 mg/kg
5-HIAA MED (minimum effective dose lowering brain 5-HIAA levels) (5-HT1A receptors [1]; sc): 0.3 mg/kg
Corticosterone MED (minimum effective dose elevating serum corticosterone levels) (5-HT1A receptors [2]): 0.3 mg/kg
IC50 (5-HT1A receptors [3]): 1.4 nM
